Data on one sequence can be found in patent US8283324B2, “Immunomodulatory and anti-tumour peptides” (Centro de Ingenieria Genetica y Biotecnologia, priority 2006, dated 2012).

Assay [1] concerns H-125 (non-small human ling cancer cells). Description: growth of tumor cells, crystal violet, H-125. It is filed as cell-based. To be noted: 9 μM to 300 μM, 72 h; FIG. 9. The method, then: For this assay, TC-1, H-125 (non-small human ling cancer cells) and L929) murine fibroblast) cells were seeded in 96-well culture plates (Costar) at a 2×10^4 cells/ml in Dulbecco's modified Eagle's medium (DMEM)(Gibco) supplemented with Calf Fetal Serum (Gibco). After 24 h, the peptides were added to the culture in a range of 9 μM to 300 μM. […] Plates were extensively washed with tap water and plates were read at 562 nm. A pro-apoptotic peptide with a marked anti-proliferative effect in vitro was employed as positive control (Perea, S., et al (2004) Antitumor Effect of a Novel Proapoptotic Peptide that Impairs the Phosphorylation by the Protein Kinase 2 Cancer Research 64: 7127-7129).

Assay [2] in a line: competition ELISA for LPS-binding capacity. Set-up: species or system E. coli. The following applies: competition with biotinylated LALF32-51 at 0.2 μM; analogous peptides 10 μM to 0.01 μM; FIG. 1A. The method, then:
This assay consists on a competition ELISA system (Hardy E., et al (1994) Enhanced ELISA sensitivity using TCA for efficient coating of biologically active LPS or Lipid A to the solid phase. J. Immunol. Meth. Vol. 176:111-116). Polystyrene plates (Costar, USA) were coated with LPS from E. coli 0111:B4 (1 μg/ml) with 0.2% trichloroacetic acid (TCA). Plates were incubated overnight at 37° C. and further washed ten times with 1× phosphate-buffered saline (1×PBS) plus 0.1% tween-20 (washing solution). The binding of analogous peptides to the LPS fixed to the solid surface was evaluated by a competition ELISA with the biotinylated LALF32-51 peptide at 0.2 μM, obtaining a 90% of maximum LPS binding. To estimate the inhibition curves, different concentrations of the analogous peptides were used, from 10 μM to 0.01 μM and the curve of the LALF32-51 peptide as experimental control. The biotinylated LALF32-51 was incubated in the presence of the analogous peptides for 2 h at 37° C. and plates were washed 5 times after that time with washing solution. The biotinylated LALF32-51 bound to LPS was detected by incubating for 45 min at 37° C. with a streptavidin-peroxidase conjugate at a 1:2,000 dilution. Plates were washed 5 times with washing solution and the substrate solution was added (0.05 M citrate-phosphate buffer, pH 5.5, 1 tablet of 3,3′,5,5′-tetramethylbenzidine and 0.025% hydrogen peroxide). After 15 min incubation, the reaction was stopped by adding 2 M sulphuric acid. The absorbance was quantified at 450 nm in a plate reader (Sensident Scan). There is a correlation between optical density values and the LPS-binding capacity of analogous peptides. Analogous peptides with higher LPS-binding capacity show inhibition curves of lower O.D. compared to the inhibition curve of the LALF32-51 peptide.
Analogous peptides with lower LPS-binding capacity present inhibition curves with […], compared to the inhibition curve of the LALF32-51 peptide.
FIG. 1B represents the inhibition percentages of analogous peptides, at a fixed […] concentration, according to their capacity to displace the binding of the biotinylated LALF32-51 (0.2 μM) to LPS adsorbed to the solid surface. % de inhibición={1−(([O.D.]sample−[O.D.]min)/([O.D.]max−[O.D.]min))}×100 [O.D.] sample: Optical density value in the presence of a fixed concentration of analogous peptides; [O.D.] min: ELISA background; [O.D.] max: Optical density value without analogous peptides.

The subject of assay [3] is mice lung cancer 3LLD122 cells. Description: metastasis model of Lewis' carcinoma. It is filed as in vivo, C57BI/6 female mice. The following applies: 4 mg/kg s.c. after 7 days; sacrifice 21 days after removal of primary tumor; FIG. 8. The method, then: Eight-to-ten weeks-old C57BI/6 female mice were used for this assay (n=8 animals per experimental group). These animals were inoculated in the posterior right footpad with 250,000 mice lung cancer 3LLD122 cells. After 7 days, a 4 mg/kg of body weight dose of the L-2 analogous peptide was subcutaneously injected. When tumors reached 8 mm in diameter, the primary tumor was surgically removed from the carrier leg. Mice were sacrificed 21 days after this surgical procedure. Lungs were weighed to indicate the amount of metastasis on them.

For assay [4], the system named is MB16-F10 tumor cells. Description: anti-tumoral effect in a melanoma model. It is filed as in vivo, C57BI/6 female mice. The following applies: 4 mg per kg. The method, then:
Eight-to-ten weeks-old C57BI/6 female mice were used for this assay (n=10 animals per experimental group). For tumor graft, MB16-F10 tumor cells were used, being resuspended in phosphate-buffered saline (PBS). An amount of 15,000 cells were inoculated in a 200 μl volume by subcutaneous route in the right hind limb. After 4 days, the L-2 peptide was administered, with the second injection administered 7 after the first, and the third immunization was administered 14 days after. In this assay was evaluated a dose of 4 mg of peptide per kg of animal weight. Parameters evaluated to measure the anti-tumoral effect of the given peptide during this assay were the time of tumor grafting and the animal survival.

As to “HARIKPTFRRLKWKYKGKFW [Peptide L-2, alanine-substituted analogue of LALF 32-51]”, the anti-proliferative effect result in assay [1] was “dose-dependent anti-proliferative effect”. Besides, the LPS-binding capacity result in assay [2] is “lose the capacity to bind LPS”. In assay [3], the “metastasis (lung weight)” value was “able to reduce the metastatic tumor events”. For the same sequence, the “time of tumor grafting” value in assay [4] (three administrations starting after 4 days, Log Rank *p<0.05, FIG. 5A) was “significantly delayed tumor grafting”. Further, the animal survival result in assay [4] (three administrations, Log Rank *p<0.05, FIG. 5B) is “significantly increased the survival of animals”. For the same sequence, the “animal survival compared to the LALF32-51 peptide” value in assay [4] (FIG. 5B) is given as “more effective than the LALF32-51 peptide”.
